Test results published in the NIST ThermoML archive (doi:10.1021/je301030z).

Assay: mn = molality of the nth substance listed, in mol/kg
Conditions: 101 kPa, Liquid, Vibrating tube method

NCCO [2-aminoethan-1-ol] + O
mass density [kg/m3]
Conditions | 293.16 K | 297.14 K | 301.14 K | 305.14 K | 309.14 K | 313.14 K | 317.14 K | 320.14 K
m1 = 2.8 | 1004.53 | 1003.31 | 1001.95 | 1000.48 | 998.89 | 997.21 | 995.42 | 994.02
m1 = 7.01 | 1013.19 | 1011.51 | 1009.75 | 1007.89 | 1005.96 | 1003.95 | 1001.85 | 1000.22
